Assay results published in US20230382928A1, “EUROPIUM(III) COMPLEXES AS PH SENSORS” (CISBIO BIOASSAYS, priority 2020, published 2023).

Key:
[1] = pKa determination from emission lifetime variation versus pH
Description: (§2) An emission lifetime value at each pH was obtained by plotting the decay of the emission lifetime over time and fitting the curve to a simple exponential decay model. The pKa values of the complexes were determined for the reversible protonation.

[2] = Quantum yield of europium complexes at different pH; assay type: physicochemical; conditions: for Q.Y. pH 4 / Q.Y. pH 8: text gives the same values in %; for Q.Y. pH 4 / ΦpH 4 (quantum yield): pH 4; for ΦpH 4 (quantum yield) / ΦpH 8 (quantum yield): λexc 330-332 nm; for ΦpH 8 (quantum yield) / Q.Y. pH 8: pH 8
Description: The properties of representative complexes of the invention (complexes 14, 18, 21, 78a, 78b, 88a, 88b, 93, 104) were investigated. The presence of the Boc-group was not predicted to alter these properties. The experiments were thus carried out with the Boc group for the functionalized complexes. […]
(§1) Traditionally, molar extinction coefficients, ε, are calculated using the Beer-Lambert equation and involve measuring the absorbance of a series of solutions of a complex at different known concentrations. A plot of absorbance at a particular wavelength against concentration allows determination of ε from the gradient of the linear correlation. The quantum yield (QY) of the complexes increases as the pH decreases. For complexes 78b, 88a, 88b and 93, the quantum yield at pH 8 is approaching 0 meaning that the complexes are therefore hardly emissive at physiological pH and conversely, these complexes are very bright at pH 4.

[3] = Absorption spectra / molar extinction coefficient (Beer-Lambert); assay type: physicochemical; conditions: for λexc (nm): excitation wavelength; for ε: molar extinction coefficient at λexc
Description: The properties of representative complexes of the invention (complexes 14, 18, 21, 78a, 78b, 88a, 88b, 93, 104) were investigated. The presence of the Boc-group was not predicted to alter these properties. The experiments were thus carried out with the Boc group for the functionalized complexes. The absorption and emission spectra were recorded in a pH gradient (pH 4 to pH 10).
as §1
This could be useful as excitation at, or near, this wavelength would allow equal excitation of both the unprotonated and protonated complex, which exist in a pH-dependent equilibrium in solution. An isosbestic point was not observed for Complex 14.

[4] = Excited state (emission) lifetime at different pH; assay type: physicochemical
Description: as §2

[5] = Fluorescence intensity at 620 nm as a function of pH (Pherastar FS plate reader); assay type: physicochemical; conditions: pH 4 to pH 7.8; 0.1% BSA; FIG. 29
Description: The fluorescence intensity of representative complexes of the invention (78a, 78b, 104) was measured using a Plate Reader Pherastar FS equipped with a flash lamp. The buffers (pH 4 to pH 7.8) were distributed in a white 96-well plate, then the lanthanide complexes (10 μL at 110 nM) were distributed in an aqueous solution comprising 0.1% BSA. By way of comparison, the fluorescence intensity of the following complexes was also measured: […]

[6] = Time-gated emission intensity, pH 4/pH 8 ratio; assay type: physicochemical; conditions: λem=613.5 nm
From the text: Data was normalised for a 60 μs delay at pH 4.
Data were normalised for a 60-460 μs time window at pH 4. Measurements were taken in NH4CH3CO2 (pH 4 and 5), MES (pH 5.5, 6 and 6.5), HEPES (pH 7) and NH4HCO3 (pH 8) buffers (all 0.1 M with 0.1 M NaCl).
A benefit of the long-lived lifetime of emission for the lanthanides is the possibility of performing time-gated measurements. Further to this, as a result of the ‘switch-on’ nature of complex 18, the unprotonated and protonated forms differ in emission lifetime. These properties allow the unique opportunity to control, to some degree, the apparent pKa value as well as the relative degree of ‘switching-on’ of the probe by changing the time window. This aspect is illustrated in practice using appropriate buffers of different pH (in the presence of 0.1 M NaCl) in FIG. 28.
By measuring the emission intensity of the hypersensitive ΔJ=2 band at different pH with a longer delay time after excitation (FIG. 28 top), a shallower curve was obtained (a lower apparent pKa).
A summary of the ratios of emission intensity (at λem=613.5 nm) at pH 4 (sensor on) and pH 8 (sensor off), where the emission signal was measured between different time windows, for complex 18 is presented in Table 4.
The extent of the switch-on response of the complex may be quantified, for comparison purposes, as the ratio of the emission intensity at the maximum of the ΔJ=2 band at pH 4, when the sensor is fully switched ‘on’, and pH 8, when the sensor is effectively ‘off’.

ε (molar extinction coefficient) ([3]; at the wavelength (330-336 nm)) [M⁻¹ cm⁻¹]	Structure (SMILES)	pKa ([1]; 295 K, I = 0.1M NaCl)	Q.Y. pH 4 [2] [%]	ΦpH 4 (quantum yield) [2] [%]	ΦpH 8 (quantum yield) [2] [%]	ε (molar extinction coefficient) ([3]; at the wavelength (330-331 nm)) [L M^−1 cm^−1]	λexc (nm) [3] [nm]	ε [3] [M⁻¹ cm⁻¹]	Excited state lifetime ([4]; pH 4) [ms]	Excited state lifetime ([4]; pH 5) [ms]	Excited state lifetime ([4]; pH 6) [ms]	Excited state lifetime ([4]; pH 7) [ms]	variation of fluorescence intensity at 620 nm as a function of pH [5]	Excited state lifetime ([4]; pH 8) [ms]	Q.Y. pH 8 [2] [%]	Excited state lifetime ([4]; pH 9) [ms]	also measured
	CCN(C)c1cc(C#Cc2cc(CN3CCN(Cc4cc(C#Cc5ccc(OCCCC(=O)NCCCS(=O)(=O)[O-])c(N(C)CC)c5)cc(P(C)(=O)[O-])n4)CCN(Cc4cc(CCCNC(=O)OC(C)(C)C)cc(P(C)(=O)[O-])n4)CC3)nc(P(C)(=O)[O-])c2)ccc1OCCCC(=O)NCCCS(=O)(=O)[O-].[Eu+3] [Complex 78b]	5.34	14.5	14.5	0.01	39000	330	39000	1.05	0.77	0.42	0.29	pH sensitive				Excited state lifetime ([4]; pH 8, listed as 78b): 0.3 ms; Excited state lifetime ([4]; pH 8, listed as drawing 110): 0.30 ms
	CCN(CC)c1cc(C#Cc2cc(CN3CCN(Cc4cc(C#Cc5ccc(OCCCC(=O)O)c(N(CC)CC)c5)cc(P(C)(=O)[O-])n4)CCN(Cc4cc(CCCNC(=O)OC(C)(C)C)cc(P(C)(=O)[O-])n4)CC3)nc(P(C)(=O)[O-])c2)ccc1OCCCC(=O)O.[Eu+3] [Complex 77a]								0.97	0.95	0.53	0.39		0.27			
12000	CCN(CC)c1cc(C#Cc2cc(CN(CC(=O)O)CC(=O)O)nc(CN(CC(=O)O)CC(=O)O)c2)ccc1OCCCN [Complex 104]		3.2	3.2	0.17		330	12000	0.38	0.37	0.35	0.32	pH sensitive		0.17		pKa ([1]; 0.1 M NaCl (ionic strength)): 6.35; Excited state lifetime ([4]; pH 8, listed as 104): 0.3 ms; Excited state lifetime ([4]; pH 8, listed as drawing 127): 0.30 ms
	CCN(CC)c1cc(C#Cc2cc(CN3CCN(Cc4cccc(P(C)(=O)[O-])n4)CCN(Cc4cc(C#Cc5ccc(OC)c(N(CC)CC)c5)cc(P(C)(=O)[O-])n4)CC3)nc(P(C)(=O)[O-])c2)ccc1OC.[Eu+3] [Complex 18]	6.3	17.6				328	35000		0.96	0.78	0.47		0.34	0.2	0.34	ratio of emission intensity pH 4/pH 8 ([6]; time window 60-460 μs): 32; ratio of emission intensity pH 4/pH 8 ([6]; time window 1000-2000 μs): 227; ratio of emission intensity pH 4/pH 8 ([6]; time window 1500-2500 μs): 465; Excited state lifetime ([4]; pH 3): 1 ms; Excited state lifetime ([4]; pH 4, listed as 18): 1 ms; Excited state lifetime ([4]; pH 4, listed as drawing 63): 1.00 ms
	CCN(CC)c1cc(C#Cc2cc(CN3CCN(Cc4cc(C#Cc5ccc(OCCCC(=O)NCCCS(=O)(=O)[O-])c(N(CC)CC)c5)cc(P(C)(=O)[O-])n4)CCN(Cc4cc(CCCNC(=O)OC(C)(C)C)cc(P(C)(=O)[O-])n4)CC3)nc(P(C)(=O)[O-])c2)ccc1OCCCC(=O)NCCCS(=O)(=O)[O-].[Eu+3] [Complex 78a]	6.20	16	16	0.3	39000	330	39000	1.04	0.98		0.34	pH sensitive	0.25	0.3		Excited state lifetime ([4]; pH 6, listed as 78a): 0.7 ms; Excited state lifetime ([4]; pH 6, listed as drawing 109): 0.70 ms
	CCN(CC)c1cc(C#Cc2cc(CN3CCN(Cc4cc(C#Cc5ccc(OC)c(N(CC)CC)c5)cc(P(C)(=O)[O-])n4)CCN(Cc4cc(C#Cc5ccc(OC)c(N(CC)CC)c5)cc(P(C)(=O)[O-])n4)CC3)nc(P(C)(=O)[O-])c2)ccc1OC.[Eu+3] [Complex 21]	6.21	17			45000	331	45000	0.84	0.83	0.59	0.32		0.25	0.1	0.24	
35000	CCN(CCCS(=O)(=O)O)c1cc(C#Cc2cc(CN3CCN(Cc4cc(C#Cc5ccc(OC)c(N(CC)CCCS(=O)(=O)O)c5)cc(P(C)(=O)O)n4)CCN(Cc4cc(CCCNC(=O)OC(C)(C)C)cc(P(C)(=O)O)n4)CC3)nc(P(C)(=O)O)c2)ccc1OC [Complex 88a]		13.4	13.4	0.06		332	35000	1.07	0.76	0.41	0.29		0.31		0.31	pKa ([1]; 0.1 M NaCl (ionic strength)): 5.2

Structure (SMILES)	ε (molar extinction coefficient) ([3]; at the wavelength (330-336 nm)) [M⁻¹ cm⁻¹]	pKa ([1]; 295 K, I = 0.1M NaCl)	Q.Y. pH 4 [2] [%]	ΦpH 4 (quantum yield) [2] [%]	ΦpH 8 (quantum yield) [2] [%]	ε (molar extinction coefficient) ([3]; at the wavelength (330-331 nm)) [L M^−1 cm^−1]	λexc (nm) [3] [nm]	ε [3] [M⁻¹ cm⁻¹]	Excited state lifetime ([4]; pH 4) [ms]	Excited state lifetime ([4]; pH 5) [ms]	Excited state lifetime ([4]; pH 6) [ms]	Excited state lifetime ([4]; pH 7) [ms]	variation of fluorescence intensity at 620 nm as a function of pH [5]	Excited state lifetime ([4]; pH 8) [ms]	Q.Y. pH 8 [2] [%]	Excited state lifetime ([4]; pH 9) [ms]	also measured
CCN(CC)c1cc(C#Cc2cc(CN3CCN(Cc4cccc(P(C)(=O)[O-])n4)CCN(Cc4cccc(P(C)(=O)[O-])n4)CC3)nc(P(C)(=O)[O-])c2)ccc1OC.[Eu+3] [Complex 14]	11450	6.75	16.8	16.8	0.5		331	11450	1.16	1.15	1.06	0.74		0.53	0.5		isosbestic point ([3]; absorption spectra pH 4 to 10): not observed; Excited state lifetime ([4]; pH 9, listed as 14): 0.5 ms; Excited state lifetime ([4]; pH 9, listed as drawing 59): 0.50 ms
